Measured values reported in patent US20060079479A1, “Methods of inducing vasodilation” (priority 2004, published 2006).

How the values were obtained:
human subjects = assay: Forearm blood flow (FBF) after infusion into forearm arteries of human subjects; assay type: in vivo; conditions: for forearm blood flow (FBF) before infusion (baseline): baseline value before forearm artery infusion; for forearm blood flow (vasodilation) at calculated equimolar concentrations: forearm artery infusion, calculated equimolar 1 μmol/min
Procedure: Blood pressure, heart rate, and respiration were continuously monitored throughout the administration. A physician was present throughout the study and monitored for side effects. At the end of each infusion period, the forearm blood flow (FBF) of each subject was then measured by standard techniques.
A physician was present, and the subject was monitored throughout the infusion, as in Example 1.

[1] = in pharmaceutically acceptable carriers; cited from earlier work
[2] = uptake by nucleoside transporter in red blood cells; cited from earlier work
[3] = forearm artery infusion 0.125 mg/min for 15 minutes

Compound | vasodilation compared with adenosine at calculated equimolar concentrations (human subjects; 1 μmol/min, p<0.02) | forearm blood flow (FBF) before infusion (baseline) (human subjects) | forearm blood flow (FBF) at end of infusion (human subjects; [3]) | forearm blood flow (FBF) at end of infusion (human subjects; forearm artery infusion 0.5 mg/min for 15 minutes) | forearm blood flow (vasodilation) at calculated equimolar concentrations (human subjects) | limit of solubility [1] | half-life in blood [2]
Nc1ncnc2c1ncn2[C@@H]1O[C@H](COP(=O)(O)O)[C@@H](O)[C@H]1O [AMP, Adenosine 5′-monophosphate] | significantly greater vasodilation | 3.8±0.5 ml/100 ml/min | 16.3±1.6 ml/100 ml/min | 20.7±1.8 ml/100 ml/min | 19.4±1.8 ml/100 ml/min | approximately 400 mg/ml | –
Nc1ncnc2c1ncn2[C@@H]1O[C@H](CO)[C@@H](O)[C@H]1O [adenosine, reference compound] | – | 3.1±0.2 ml/100 ml/min | 14.2±2.0 ml/100 ml/min | – | 15.6±1.9 ml/100 ml/min | approximately 5 mg/ml | less than 1 second
